# Source: patent US10799456B2, “Multiple drug lipid nanoparticle composition and related methods for extended drug levels in blood and lymph tissue” (priority 2015, dated 2020)
# Key:
# [1] = Drug incorporation efficiency into lipid-drug nanoparticles (dialysis); assay type: physicochemical; settings: for Incorporation efficiency (%) / Drug incorporation (% total): preclinical 45 mL scale
# Procedure: J Acquir Immune Defic Syndr. […] Journal of pharmaceutical sciences. […] The AAPS journal. […] Residual solvent was removed overnight by vacuum desiccation. The dried lipid-drug film was then rehydrated with 0.9% NaCl containing 20 mM sodium bicarbonate (pH 7.4). The lipid-drug samples were allowed to hydrate at 60° C. for 2 h. Then samples were sonicated (laboratory scale) or homogenized (preclinical scale) to achieve a homogenous suspension.
# The incorporation efficiency was calculated as the ratio of the amount of incorporated drug over the total amount of drug loaded multiplied by 100%.
# [2] = cited from earlier work; for Hydrophobicity (Log P): Tables 20 and 21; for LogP: Tables 18 and 19
# [3] = % Drug association to particles by assembly method; assay type: physicochemical
# Description: Select one or two drugs hydrophilic and water soluble (Class 2) drugs listed in Table 19 (for example, tenofovir and/or emtricitabine and/or lamivudine). • 3. Select the excipient combination (for example, 9 parts DSPC and 1 part PEG-DSPE). • 4. Prepare a single-phase miscible solvent that enables full solubilization of the chosen water-insoluble Class 1 drugs and water soluble Class 2 drugs plus the excipients from step 3. Examples include CHCl3:Methanol:Water (65:35:4); CHCl3:Ethanol:Water (65:35:4); CHCl3:Propanol:Water (65:35:4); and CHCl3:Hexanol:Water (65:35:4). • 5. The components in Steps 1, 2 and 3 are solubilized with the miscible solvent in step 4. • 6. The drugs (steps 1 and 2) as well as excipients (step 3) and the miscible solvent (step 4) are dried under reduced pressure with assistance of a combination of heat, reduced pressure and/or aerosolization to provide for uniformity and efficiency of drying. • 7. The dehydrated composition is heated above gel-to-liquid phase transition temperature of the excipient mixture (e.g., 50° C.). • 8. A buffered saline solution is prepared and the temperature is equilibrated to the same temperature as dehydrated composition. • 9. The buffered saline solution and dehydrated composition are gradually combined and maintained at the defined (e.g., 50° C.) for 3 hr. • 10. The resulting hydrated multi-drug lipid nanoparticles are size-reduced by sheering or forcing through small orifice or pressurized filter apparatus while maintaining at the defined temperature (in liquid phase of lipidic excipients).
# [4] = Particle size by photon correlation spectroscopy; assay type: physicochemical
# Procedure: The mean particle size of lipid-drug nanoparticles and liposome control was determined by photon correlation spectroscopy (PCS) using a NICOMP™ 380ZLS instrument (NICOMP Particle Sizing Systems, Santa Barbara, Calif.). […] Samples were diluted with the same buffer to an identical final volume to analyze concentration effects. The light scattering data were analyzed based on intensity-weight NICOMP size distribution and expressed as a mean±SD.
# Briefly, lipids and protease inhibitors were dissolved in chloroform:ethanol (3:1 v/v) and PMPA was added from a stock solution of 30 mg/ml in aqueous 150 mM NaHCO3. Solvent was removed by rotary evaporation and vacuum desiccation. The dry film was rehydrated to 200 mM lipid in 0.4% NaCl with 20 mM NaHCO3 buffer at 60° C. Particle size was reduced at 60° C. by bath sonication (laboratory scale) or high-pressure homogenization using an Emulsiflex-05 (Avestin, Ottawa, Canada) (clinical scale). LNPs were maintained at 60° C. to anneal for 30 min prior to cooling and stored at 4° C. Particle size was determined by photon correlation spectroscopy using a NICOMP 380 ZLS (Particle Sizing Systems, Santa Barbara, Calif.).
# [5] = Octanol-buffer distribution coefficient (shake-flask); assay type: physicochemical; settings: room temperature
# Procedure: The octanol-buffer drug distribution coefficient at room temperature was determined by a small-scale, shake-flask method described by Dittert L W, et al. Phase Solubility Technique in Studying the Formation of Complex Salts of Triamterene. Journal of pharmaceutical sciences. […] Briefly, phosphate-buffered saline (PBS) at pH 3, 5, and 7.4 was used as the aqueous phase. […] The mixture was centrifuged at 14,000 rpm (18,078 g) (Beckman Coulter™ Microfuge® 18 centrifuge, Beckman Coulter Inc., Brea, Calif.) to separate octanol and the aqueous phase. The drug concentration in the two phases was determined with high-performance liquid chromatography tandem mass spectrometry (HPLC/MS/MS). The distribution coefficient was calculated as the ratio of the drug concentration in the octanol phase to the drug concentration in the aqueous phase. Triplicate samples were used at each pH.
# [6] = Drug incorporation/encapsulation (association) efficiency of multi-drug LNPs by dialysis; assay type: physicochemical
# Procedure: The anti-HIV LNP formulations contain both unbound drug and drugs bound to lipid nanoparticles. […] Drugs were quantified by LC-MS/MS using acetonitrile precipitation. Encapsulation efficiency (EE) was calculated as follows: […]
# [7] = Plasma time course of ATV/RTV/TFV lipid nanoparticles in primates; assay type: in vivo, Macaca nemestrina; settings: male, Macaca nemestrina, in vivo, sc
# Procedure: All animal procedures were performed under an approved protocol reviewed by the University of Washington Institutional Animal Care and Use Committee. […] ATV, RTV, and TFV in the plasma were extracted in duplicate and analyzed with a liquid chromatography-mass spectrometry assay with a validated reverse phase HPLC/MS/MS method, similar to that of lopinavir (LPV), RTV, and TFV. […] Antimicrobial agents and chemotherapy. 2014. The linear trapezoidal method was used to calculate the area under the plasma drug concentration-time curve (AUC) for ATV, RTV, and TFV during the time course, which was close to 168 h post-dosing. […] All drugs in buffer and plasma were analyzed using a validated HPLC/MS/MS analytical method, capable of analyzing […], and TFV. The one-step analysis for LPV, RTV, and TFV was published previously. […] Antimicrobial agents and chemotherapy. 2014. Briefly, the HPLC system was outfitted with a Shimadzu 20AD HPLC (Shimadzu Scientific Instruments, Inc., Pleasanton, Calif.). […] Multiple reaction monitoring (MRM) was used to detect transition ions from a specific precursor ion to product ion. The analytes were detected using the following m/z transitions: 705.5/168.2 for ATV, 548.3/392.3 for DRV, 721.3/296.1 for RTV, 288.1/176 for TFV, and 238.1/193.2 for cyheptamide.
# [8] = cited from earlier work
# [9] = Plasma drug exposure of three multi-drug lipid formulations vs free drug in primates; settings: monkey, in vivo, sc, AUC Lipid Drug 0-168 h, LPV/EFV/TFV combination
# [10] = reported values; cited from earlier work
structure (smiles),measurement,setting,value
"COC(=O)N[C@H](C(=O)N[C@@H](Cc1ccccc1)[C@@H](O)CN(Cc1ccc(-c2ccccn2)cc1)NC(=O)[C@@H](NC(=O)OC)C(C)(C)C)C(C)(C)C [Atazanavir (ATV), Atazanavir]",Incorporation efficiency (%),"[1]; LNPs with ATV + RTV + TFV (2:1:3), laboratory 0.2 mL scale",104.2 ± 3.2%
same,Incorporation efficiency (%) / Drug incorporation (% total),[1]; LNPs with ATV + RTV + TFV (2:1:3),85.5 ± 8.2%
same,Incorporation efficiency (%) / Drug incorporation (% total),"[1]; LNPs with ATV + RTV + TFV (2:1:3), listed as atazanavir",85.5±8.2%
same,Incorporation efficiency (%),"[1]; LNPs with ATV + RTV, laboratory scale, lipid:drug 8:1",93.5 ± 6.6%
same,Incorporation efficiency (%),"[1]; LNPs with ATV, laboratory scale, lipid:drug 8:1",100.5 ± 8.2%
same,Incorporation efficiency (%),"[1]; lipid:drug 5:1 mol/mol, DSPC:DSPE-mPEG2000 8:2",96.5 ± 2.6%
same,Incorporation efficiency (%),"[1]; lipid:drug 8:1 mol/mol, DSPC:DSPE-mPEG2000 8:2",96.2 ± 3.8%
same,Incorporation efficiency (%),"[1]; lipid:drug 20:1 mol/mol, DSPC:DSPE-mPEG2000 8:2",97.4 ± 1.8%
same,Hydrophobicity (Log P),[2],5.6
same,"% Drug Association to Particles, LNPs from mixture of dual solvent method",[3],90-100%
same,"% Drug Association to Particles, LNPs from single, miscible solvent method",[3],90-100%
same,Particle size (nm),[4]; lipid:drug 5:1 mol/mol,68.2 ± 7.1 nm
same,Particle size (nm),[4]; lipid:drug 8:1 mol/mol,56.3 ± 4.1 nm
same,Particle size (nm),[4]; lipid:drug 20:1 mol/mol,34.6 ± 3.1 nm
same,Log D (measured),"[5]; pH 3, octanol/PBS",3.40 ± 0.31
same,Log D (measured),"[5]; pH 5, octanol/PBS",4.66 ± 0.27
same,Log D (measured),"[5]; pH 7.4, octanol/PBS",5.77 ± 0.03
same,% particle-bound,"[6]; Combination 2, lipid:ATZ:RTV:TFV 115:10:5:15, large scale",(91.9 ± 6.8) %
same,AUC fraction (% total) 8-168 h,[7],95.3%
same,Water solubility @ 25° C.,[8],0.11 µg/mL
C[C@@H]1CCO[C@H]2Cn3cc(C(=O)NCc4ccc(F)cc4F)c(=O)c(O)c3C(=O)N12 [Dolutegravir],LogP,[2],2.4
same,Water solubility @ 25° C.,[8],95 µg/mL
O=C1Nc2ccc(Cl)cc2[C@@](C#CC2CC2)(C(F)(F)F)O1 [Efavirenz],LogP,[2],4
same,Hydrophobicity (Log P),[2],4
same,"% Drug Association to Particles, LNPs from mixture of dual solvent method",[3],76%
same,"% Drug Association to Particles, LNPs from single, miscible solvent method",[3],80-90%
same,% particle-bound,"[6]; Combination 3, lipid:LPV:EFV:TFV 200:26.6:20:40, large scale",(78.7) %
same,AUC,[9],31200 ± 2700 ng·h/mL
same,"% Drug Association to Particles, Liposomes",[10],80%
same,Water solubility @ 25° C.,[8],0.000093 µg/mL
Nc1nc(=O)n([C@@H]2CS[C@H](CO)O2)cc1F [Emtricitabine],LogP,[2],−2.4
same,Hydrophobicity (Log P),[2],−1.4
same,"% Drug Association to Particles, LNPs from mixture of dual solvent method",[3],3-10%
same,"% Drug Association to Particles, LNPs from single, miscible solvent method",[3],78-80%
same,"% Drug Association to Particles, Liposomes",[10],1-2%
same,Water solubility @ 25° C.,[8],112000 µg/mL
CC(C)(C)NC(=O)[C@@H]1CN(Cc2cccnc2)CCN1C[C@@H](O)C[C@@H](Cc1ccccc1)C(=O)N[C@H]1c2ccccc2C[C@H]1O [Indinavir],LogP,[2],2.3
Nc1ccn([C@@H]2CS[C@H](CO)O2)c(=O)n1 [Lamivudine],"% Drug Association to Particles, LNPs from mixture of dual solvent method",[3],10-30%
same,"% Drug Association to Particles, LNPs from single, miscible solvent method",[3],85%
same,"% Drug Association to Particles, Liposomes",[10],4-5%
Cc1nnc(C(=O)NC(C)(C)c2nc(C(=O)NCc3ccc(F)cc3)c(O)c(=O)n2C)o1 [Raltegravir],LogP,[2],−0.39
same,"% Drug Association to Particles, LNPs from mixture of dual solvent method",[3],9-25%
same,"% Drug Association to Particles, LNPs from single, miscible solvent method",[3],75-89%
same,Water solubility @ 25° C.,[8],100 µg/mL
Cc1cc(/C=C/C#N)cc(C)c1Nc1ccnc(Nc2ccc(C#N)cc2)n1 [Rilpivirine],Hydrophobicity (Log P),[2],4.5
same,"% Drug Association to Particles, LNPs from mixture of dual solvent method",[3],75-76%
same,"% Drug Association to Particles, LNPs from single, miscible solvent method",[3],90-100%
same,"% Drug Association to Particles, Liposomes",[10],14%
same,Water solubility @ 25° C.,[8],0.094 µg/mL
